Reference: patent US9937151B2, “Carbapenem antibacterials with gram-negative activity” (priority 2010, dated 2018)
Values after ≈ are worked out from the molar mass of the structure shown.

Tested on: G(−) bacterial strains
Test: Dilution antimicrobial susceptibility tests (MIC, NCCLS agar dilution / broth dilution)
Type: cell-based, Gram-negative organisms
Conditions: unit assumed
Method in brief: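 Agar dilution on Mueller-Hinton agar at 10^4 CFU/spot and broth dilution at 5×10^5 CFU/well, per NCCLS M7-A5. Streptococci tested on Mueller-Hinton agar with 5% sheep blood. MIC taken as minimum inhibitory concentration; ATCC control strains run alongside.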

[1] = strain #1 Acinetobacter calcoaceticus
[2] = strain #2 Acinetobacter baumannii, Cf-R, Ci-R
[3] = strain #3 Acinetobacter baumannii, Cf-R, Ci-R, Mp-I
[4] = strain #4 Acinetobacter baumannii, Cf-R, Imp-I, CBPase
[5] = strain #7 Enterobacter aerogenes
[6] = strain #8 Enterobacter cloacae, Cf-R, B+
[7] = strain #9 Enterobacter cloacae, Cf-R
[8] = strain #10 Escherichia coli, Ci-R
[9] = strain #11 Escherichia coli, Ci-R, AmpC
[10] = strain #15 Klebsiella pneumoniae
[11] = strain #16 Moraxella catarrhalis
[12] = strain #21 Providencia rettgeri
[13] = strain #22 Salmonella typhimurium
[14] = strain #25 Shigella dysenteriae
[15] = strain #28 Stenotrophomonas maltophilia

Compound: C[C@@H](O)[C@H]1C(=O)N2C(C(=O)O)=C(CN3C[C@@H](O)[C@H](NC(=N)N)C3)[C@H](C)[C@H]12 [Compound 178]
- MIC [1]: 0.13 µg/mL (≈ 0.354 µM)
- MIC [2]: 1 µg/mL (≈ 2.72 µM)
- MIC [3]: 1 µg/mL (≈ 2.72 µM)
- MIC [4]: 1 µg/mL (≈ 2.72 µM)
- MIC (strain #5 Citrobacter diversus): 0.25 µg/mL (≈ 0.68 µM)
- MIC (strain #6 Citrobacter freundii): 0.5 µg/mL (≈ 1.36 µM)
- MIC [5]: 1 µg/mL (≈ 2.72 µM)
- MIC [6]: 0.25 µg/mL (≈ 0.68 µM)
- MIC [7]: 0.5 µg/mL (≈ 1.36 µM)
- MIC [8]: 0.25 µg/mL (≈ 0.68 µM)
- MIC [9]: 0.25 µg/mL (≈ 0.68 µM)
- MIC (strain #12 Escherichia coli): 0.5 µg/mL (≈ 1.36 µM)
- MIC (strain #13 Escherichia coli): 0.5 µg/mL (≈ 1.36 µM)
- MIC (strain #14 Klebsiella oxytoca): 0.5 µg/mL (≈ 1.36 µM)
- MIC [10]: 0.5 µg/mL (≈ 1.36 µM)
- MIC [11]: ≤ 0.008 µg/mL
- MIC (strain #17 Morganella Morganii): 2 µg/mL (≈ 5.44 µM)
- MIC (strain #18 Morganella Morganii): 2 µg/mL (≈ 5.44 µM)
- MIC (strain #19 Proteus vulgaris): 2 µg/mL (≈ 5.44 µM)
- MIC (strain #20 Proteus mirabilis): 0.5 µg/mL (≈ 1.36 µM)
- MIC [12]: 1 µg/mL (≈ 2.72 µM)
- MIC [13]: 0.5 µg/mL (≈ 1.36 µM)
- MIC (strain #23 Serratia marcescens): 1 µg/mL (≈ 2.72 µM)
- MIC (strain #24 Serratia marcescens): 2 µg/mL (≈ 5.44 µM)
- MIC [14]: 0.5 µg/mL (≈ 1.36 µM)
- MIC (strain #26 Shigella sonnei): 0.5 µg/mL (≈ 1.36 µM)
- MIC (strain #27 Shigella flexneri): 0.25 µg/mL (≈ 0.68 µM)
- MIC [15]: 0.13 µg/mL (≈ 0.354 µM)
- MIC (strain #29 Pseudomonas aeruginosa): 1 µg/mL (≈ 2.72 µM)
- MIC (strain #30 Pseudomonas aeruginosa): 2 µg/mL (≈ 5.44 µM)
- MIC (strain #31 Pseudomonas aeruginosa, Ofx-R): 1 µg/mL (≈ 2.72 µM)
- MIC (strain #32 Pseudomonas aeruginosa, Cf-R): 2 µg/mL (≈ 5.44 µM)
- MIC (strain #33 Pseudomonas aeruginosa, Ci-R): 2 µg/mL (≈ 5.44 µM)
- MIC (strain #34 Pseudomonas aeruginosa, Gen-R): 2 µg/mL (≈ 5.44 µM)
- MIC (strain #35 Pseudomonas aeruginosa, Ip-R): 2 µg/mL (≈ 5.44 µM)
- MIC (strain #36 Pseudomonas aeruginosa, Cf-R, Ci-R, Mp-R): 16 µg/mL (≈ 43.5 µM)

Compound: C[C@@H](O)C1C(=O)N2C(C(=O)O)=C(CN3CCC(NC(=O)CNC(=N)N)C3)[C@H](C)C12 (stereo partly shown) [Compound 167]
- MIC [1]: 32 µg/mL (≈ 78.3 µM)
- MIC [2]: > 32 µg/mL
- MIC [3]: > 32 µg/mL
- MIC [4]: > 32 µg/mL
- MIC (strain #5 Citrobacter diversus): 1 µg/mL (≈ 2.45 µM)
- MIC (strain #6 Citrobacter freundii): 2 µg/mL (≈ 4.9 µM)
- MIC [5]: 4 µg/mL (≈ 9.79 µM)
- MIC [6]: 2 µg/mL (≈ 4.9 µM)
- MIC [7]: 2 µg/mL (≈ 4.9 µM)
- MIC [8]: 1 µg/mL (≈ 2.45 µM)
- MIC [9]: 1 µg/mL (≈ 2.45 µM)
- MIC (strain #12 Escherichia coli): 1 µg/mL (≈ 2.45 µM)
- MIC (strain #13 Escherichia coli): 1 µg/mL (≈ 2.45 µM)
- MIC (strain #14 Klebsiella oxytoca): 2 µg/mL (≈ 4.9 µM)
- MIC [10]: 2 µg/mL (≈ 4.9 µM)
- MIC [11]: 2 µg/mL (≈ 4.9 µM)
- MIC (strain #17 Morganella Morganii): 8 µg/mL (≈ 19.6 µM)
- MIC (strain #18 Morganella Morganii): 8 µg/mL (≈ 19.6 µM)
- MIC (strain #19 Proteus vulgaris): 4 µg/mL (≈ 9.79 µM)
- MIC (strain #20 Proteus mirabilis): 2 µg/mL (≈ 4.9 µM)
- MIC [12]: 2 µg/mL (≈ 4.9 µM)
- MIC [13]: 2 µg/mL (≈ 4.9 µM)
- MIC (strain #23 Serratia marcescens): 2 µg/mL (≈ 4.9 µM)
- MIC (strain #24 Serratia marcescens): 4 µg/mL (≈ 9.79 µM)
- MIC [14]: 1 µg/mL (≈ 2.45 µM)
- MIC (strain #26 Shigella sonnei): 1 µg/mL (≈ 2.45 µM)
- MIC (strain #27 Shigella flexneri): 1 µg/mL (≈ 2.45 µM)
- MIC [15]: 16 µg/mL (≈ 39.2 µM)
